# What was measured:
# Format in all cases: biochemical
# [1] = system: t-butylhydroperoxide (t-BuOOH) induced lipid peroxidation in rat liver microsomes; experiment: Inhibition of t-BuOOH induced lipid peroxidation in rat liver microsomes in vitro (luminol-enhanced chemiluminescence)
# Source text: Estimation of inhibition of lipid peroxidation. The antioxidant properties of the extracts, fractions thereof and the pure compounds were estimated by their potency to inhibit t-butylhydroperoxide (t-BuOOH) induced lipid peroxidation in rat liver microsomes in vitro (17) and by their capacity to trap superoxide (oxygen radical) and peroxyl radicals, estimated by chemiluminescence-based methodology (17). The lipid peroxidation was detected by luminol-enhanced chemiluminescence. Test compounds or extracts were added to incubation mixtures in a small volume (2% of incubation volume), and the lipid peroxidation potency was compared to that of the vehicle (ethanol). Assays for the t-BuOOH-initiated lipid peroxidation was performed as follows. The buffer (50 mM sodium carbonate, pH 10.2, with 0.1 mM EDTA) was pipetted in a volume of 0.8 mL in the luminometer cuvette. 20 μL of diluted rat liver microsomes (final concentration 1.5 μg protein/mL) was added, followed by 6 μL of luminol (0.5 mg/mL) and test chemicals. The reaction was initiated by 0.05 mL of 0.9 mM t-BuOOH at 33° C. The chemiluminescence was measured for 45 min at 1 min cycles. The tests were repeated two to four times on separate days. Variation between assays were <10%.
# [2] = Scavenging of superoxide radicals in vitro (xanthine-xanthine oxidase system, lucigenin chemiluminescence)
# Experimental: (§1) Estimation of free radical trapping capacity. The capacity of the extracts, fractions thereof and the pure compounds to trap superoxide (oxygen radical) and peroxyl radicals was estimated by chemiluminescence-based methodology (17). Superoxide anions were produced by xanthine-xanthine oxidase system as follows. 20 μL of xanthine oxidase (420 mU/mL), 0.02 mL of 5 mM lucigenin, 0.02 mL of 200 mM linoleic acid dissolved in 50 mM KOH, 0.78 mL of 50 mM potassium phosphate buffer, pH 10.0, and test samples were pipetted in cuvettes. The reaction was initiated by the automated dispensing of 0.11 mL of 1.45 mM xanthine (final volume 1.0 mL). Chemiluminescence in duplicate samples at 35° C. was measured for 6 min in 1-min cycles. Peroxyl radicals were generated by thermal decomposition of 2,2′-azobis(2-amidinopropane)-hydrochloride as follows. 0.45 mL of 0.1 M sodium phosphate buffer, pH 7.4, containing 0.9% NaCl, 0.02 mL of 120 mM linoleic acid, 0.05 mL of luminol (0.5 mg/mL) and test compounds were mixed in the cuvette. The assay was initiated by 0.05 mL of ABAP (83 mg/mL). Chemiluminescence in triplicate cuvettes at 37° C. was measured until a peak value for each sample was detected. The half-peak time point defined the peroxyl radical trapping capacity.
# [3] = Scavenging of peroxyl radicals in vitro (thermal decomposition of ABAP, luminol chemiluminescence); conditions: for Stoichiometric factor (peroxyl radicals), range over the two test series: Series 1 and 2 together
# Experimental: as §1
# [4] = Series 1, pure compounds, rat liver microsomes
# [5] = knotwood extracts, fractions and reference compounds, rat liver microsomes
# [6] = knotwood extracts, fractions and reference compounds
# [7] = Series 2, pure compounds, different batch of rat liver microsomes
"IC50 [1, 4]","IC50 ([2]; Series 1, pure compounds)","Inhibition of lipid peroxidation in vitro, IC50 [1, 4]","IC50 [1, 7]","Inhibition of lipid peroxidation in vitro, IC50 [1, 7]","Scavenging of superoxide radicals in vitro, IC50 ([2]; Series 1, pure compounds)",Structure (SMILES),"Inhibition of lipid peroxidation in vitro, IC50 [1, 5]","Scavenging of superoxide radicals in vitro, IC50 [2, 6]","Stoichiometric factor (peroxyl radicals scavenged per mole of compound) ([3]; Series 1, pure compounds)","Trapping capacity (peroxyl radicals scavenged per gram) ([3]; Series 1, pure compounds)","Stoichiometric factor (peroxyl radicals scavenged per mole of compound) ([3]; Series 2, pure compounds)","Trapping capacity (peroxyl radicals scavenged per gram) ([3]; Series 2, pure compounds)","Scavenging of superoxide radicals in vitro, IC50 ([2]; Series 1, pure compounds, listed as nortrachelogenin)","Scavenging of superoxide radicals in vitro, IC50 ([2]; Series 1, pure compounds, listed as secoisolariciresinol)","Stoichiometric factor (peroxyl radicals), range over the two test series [3]","Trapping capacity (peroxyl radicals scavenged per gram) ([3]; knotwood extracts, fractions and reference compound)"
150 nM,217 nM,0.058 µg/mL,180 nM,0.067 µg/mL,0.081 µg/mL,COc1cc(C[C@H]2C(=O)OC[C@@H]2[C@H](O)c2ccc(O)c(OC)c2)ccc1O [Hydroxymatairesinol],,,2.1 mole/mole,5.6 mmol/g,2.7 mole/mole,7.3 mmol/g,,,,
350 nM,35 nM,0.126 µg/mL,170 nM,0.063 µg/mL,0.013 µg/mL,COc1cc(C[C@H]2CO[C@H](c3ccc(O)c(OC)c3)[C@H]2CO)ccc1O [Lariciresinol],,,1.0 mole/mole,2.7 mmol/g,2.6 mole/mole,7.3 mmol/g,,,,
280 nM,40 nM,0.099 µg/mL,,,0.014 µg/mL,COc1cc(C[C@H]2COC(=O)[C@@H]2Cc2ccc(O)c(OC)c2)ccc1O [Matairesinol],,,1.0 mole/mole,2.9 mmol/g,,,,,,
140 nM,1.4 nM,0.053 µg/mL,190 nM,0.07 µg/mL,0.00053 µg/mL,COc1cc(CC2COC(=O)C2(O)Cc2ccc(O)c(OC)c2)ccc1O (centres unmarked) [Nortrachelogenin],,,2.2 mole/mole,5.9 mmol/g,2.0 mole/mole,5.3 mmol/g,more effective scavengers than both BHA and Trolox,,,
100 nM,4.8 nM,0.037 µg/mL,150 nM,0.054 µg/mL,0.0018 µg/mL,COc1cc(C[C@@H](CO)[C@H](CO)Cc2ccc(O)c(OC)c2)ccc1O [Secoisolariciresinol],,,3.1 mole/mole,8.5 mmol/g,4.0 mole/mole,11 mmol/g,,more effective scavengers than both BHA and Trolox,3.1-4.0 mole/mole,
20 nM,25 nM,,180 nM,0.046 µg/mL,,"Cc1c(C)c2c(c(C)c1O)CCC(C)(C(=O)O)O2 (centres unmarked) [Trolox, 6-hydroxy-2,5,7,8-tetramethylchroman-2-carboxylic acid, reference compound]",0.005 µg/mL,0.0063 µg/mL,2.0 mole/mole,8.0 mmol/g,1.7 mole/mole,6.8 mmol/g,,,1.7-2.0 mole/mole,8.0 mmol/g

Structure (SMILES),"IC50 [1, 4]","IC50 ([2]; Series 1, pure compounds)","Inhibition of lipid peroxidation in vitro, IC50 [1, 4]","IC50 [1, 7]","Inhibition of lipid peroxidation in vitro, IC50 [1, 7]","Scavenging of superoxide radicals in vitro, IC50 ([2]; Series 1, pure compounds)","Inhibition of lipid peroxidation in vitro, IC50 [1, 5]","Scavenging of superoxide radicals in vitro, IC50 [2, 6]","Stoichiometric factor (peroxyl radicals scavenged per mole of compound) ([3]; Series 1, pure compounds)","Trapping capacity (peroxyl radicals scavenged per gram) ([3]; Series 1, pure compounds)","Stoichiometric factor (peroxyl radicals scavenged per mole of compound) ([3]; Series 2, pure compounds)","Trapping capacity (peroxyl radicals scavenged per gram) ([3]; Series 2, pure compounds)","Scavenging of superoxide radicals in vitro, IC50 ([2]; Series 1, pure compounds, listed as nortrachelogenin)","Scavenging of superoxide radicals in vitro, IC50 ([2]; Series 1, pure compounds, listed as secoisolariciresinol)","Stoichiometric factor (peroxyl radicals), range over the two test series [3]","Trapping capacity (peroxyl radicals scavenged per gram) ([3]; knotwood extracts, fractions and reference compound)"
"COc1ccc(O)c(C(C)(C)C)c1 [BHA, butylated hydroxyanisole, reference compound]",1100 nM,15 nM,,,,,0.198 µg/mL,0.0027 µg/mL,,,,,,,,

# Reference: patent US7976877B2, “Use of knotwood extracts” (Oy Arbonova Ab, priority 2003, dated 2011)
